This passage reports IC50 results from the Kinase Knowledgebase extract (Sharma et al. 2016).

pIC50: −log10 of the molar value.

The term pIC50 denotes the negative decadic logarithm of the IC50, by convention in mol/L.

The target in experiment [1] is PIK3CD (Human) (UniProt O00329). In words: Assessment of PIK3CD Kinase Activity.
The target in a further experiment is PIK3CB (Human) (UniProt P42338). In words: Assessment of PIK3CB Kinase Activity.
Experiment [2] addresses PIK3CD (Human) (UniProt O00329). The experiment in a line: Assessment of PIK3CD Kinase Activity in RAJI Cells.
The target in a further experiment is PIK3CG (human) (UniProt P48736). The experiment in a line: Assessment of PIK3CG Kinase Activity.
Chain of PIK3CG (human) (P48736 whole entry, looked up): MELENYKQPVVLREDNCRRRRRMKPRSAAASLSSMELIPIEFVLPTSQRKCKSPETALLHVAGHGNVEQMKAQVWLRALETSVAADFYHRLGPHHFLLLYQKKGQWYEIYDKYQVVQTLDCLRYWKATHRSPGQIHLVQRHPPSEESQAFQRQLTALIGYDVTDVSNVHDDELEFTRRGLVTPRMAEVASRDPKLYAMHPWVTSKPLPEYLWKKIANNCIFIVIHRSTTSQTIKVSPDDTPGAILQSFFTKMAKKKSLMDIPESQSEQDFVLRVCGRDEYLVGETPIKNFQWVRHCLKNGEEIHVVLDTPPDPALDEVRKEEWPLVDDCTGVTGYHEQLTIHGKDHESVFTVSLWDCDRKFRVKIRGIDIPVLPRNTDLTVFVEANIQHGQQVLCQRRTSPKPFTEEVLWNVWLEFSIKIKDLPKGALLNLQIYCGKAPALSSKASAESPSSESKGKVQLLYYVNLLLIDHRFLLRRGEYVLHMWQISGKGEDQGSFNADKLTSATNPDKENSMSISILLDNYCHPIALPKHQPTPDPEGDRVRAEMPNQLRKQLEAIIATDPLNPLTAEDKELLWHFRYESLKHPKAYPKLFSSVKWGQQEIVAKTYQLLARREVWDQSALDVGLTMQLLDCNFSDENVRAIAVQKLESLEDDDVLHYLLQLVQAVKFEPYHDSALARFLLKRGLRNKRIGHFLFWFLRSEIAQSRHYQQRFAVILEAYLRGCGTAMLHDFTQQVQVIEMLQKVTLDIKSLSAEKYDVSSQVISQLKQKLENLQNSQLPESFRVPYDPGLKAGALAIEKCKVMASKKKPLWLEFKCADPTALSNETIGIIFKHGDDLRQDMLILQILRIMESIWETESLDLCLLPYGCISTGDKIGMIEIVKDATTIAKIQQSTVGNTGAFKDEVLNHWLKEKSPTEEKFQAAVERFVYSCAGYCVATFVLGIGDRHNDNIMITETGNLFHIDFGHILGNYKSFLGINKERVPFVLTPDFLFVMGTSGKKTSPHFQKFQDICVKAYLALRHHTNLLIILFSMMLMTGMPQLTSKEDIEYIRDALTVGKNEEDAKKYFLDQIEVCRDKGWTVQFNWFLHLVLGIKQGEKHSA
In experiment [3] the target is PIK3CA (human) (UniProt P42336). The experiment in a line: Assessment of PIK3CA Kinase Activity.
Chain of PIK3CA (human) (P42336 whole entry, looked up): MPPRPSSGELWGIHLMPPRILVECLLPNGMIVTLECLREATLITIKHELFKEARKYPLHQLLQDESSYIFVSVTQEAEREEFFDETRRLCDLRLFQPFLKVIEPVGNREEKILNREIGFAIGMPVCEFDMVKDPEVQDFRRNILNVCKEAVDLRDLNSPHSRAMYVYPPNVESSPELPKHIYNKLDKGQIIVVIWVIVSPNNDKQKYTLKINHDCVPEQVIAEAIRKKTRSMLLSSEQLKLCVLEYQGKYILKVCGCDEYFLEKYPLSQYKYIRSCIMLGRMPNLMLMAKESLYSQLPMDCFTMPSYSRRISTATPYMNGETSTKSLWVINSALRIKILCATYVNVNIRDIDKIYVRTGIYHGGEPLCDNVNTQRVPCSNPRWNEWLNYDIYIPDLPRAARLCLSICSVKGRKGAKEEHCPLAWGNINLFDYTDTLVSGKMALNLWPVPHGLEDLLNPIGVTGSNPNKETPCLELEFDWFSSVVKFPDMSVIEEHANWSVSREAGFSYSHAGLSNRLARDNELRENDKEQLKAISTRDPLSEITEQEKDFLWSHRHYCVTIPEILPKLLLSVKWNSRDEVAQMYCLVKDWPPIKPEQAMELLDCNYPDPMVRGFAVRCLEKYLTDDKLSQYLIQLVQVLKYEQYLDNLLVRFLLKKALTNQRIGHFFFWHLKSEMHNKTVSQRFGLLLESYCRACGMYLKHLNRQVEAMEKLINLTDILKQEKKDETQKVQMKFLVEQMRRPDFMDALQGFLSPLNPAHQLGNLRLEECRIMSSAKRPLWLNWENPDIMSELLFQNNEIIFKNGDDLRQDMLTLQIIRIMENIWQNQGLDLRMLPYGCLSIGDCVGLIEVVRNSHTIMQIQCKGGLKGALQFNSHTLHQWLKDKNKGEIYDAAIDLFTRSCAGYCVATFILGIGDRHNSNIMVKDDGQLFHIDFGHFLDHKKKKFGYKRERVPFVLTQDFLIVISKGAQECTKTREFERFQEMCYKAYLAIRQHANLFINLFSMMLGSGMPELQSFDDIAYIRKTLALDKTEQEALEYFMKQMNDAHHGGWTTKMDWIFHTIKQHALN
Experiment [4] has the same target. In words: Assessment of PIK3CA Kinase Activity in SKOV-3 Cells.

Chain of PIK3CD (Human) (O00329 whole entry, looked up): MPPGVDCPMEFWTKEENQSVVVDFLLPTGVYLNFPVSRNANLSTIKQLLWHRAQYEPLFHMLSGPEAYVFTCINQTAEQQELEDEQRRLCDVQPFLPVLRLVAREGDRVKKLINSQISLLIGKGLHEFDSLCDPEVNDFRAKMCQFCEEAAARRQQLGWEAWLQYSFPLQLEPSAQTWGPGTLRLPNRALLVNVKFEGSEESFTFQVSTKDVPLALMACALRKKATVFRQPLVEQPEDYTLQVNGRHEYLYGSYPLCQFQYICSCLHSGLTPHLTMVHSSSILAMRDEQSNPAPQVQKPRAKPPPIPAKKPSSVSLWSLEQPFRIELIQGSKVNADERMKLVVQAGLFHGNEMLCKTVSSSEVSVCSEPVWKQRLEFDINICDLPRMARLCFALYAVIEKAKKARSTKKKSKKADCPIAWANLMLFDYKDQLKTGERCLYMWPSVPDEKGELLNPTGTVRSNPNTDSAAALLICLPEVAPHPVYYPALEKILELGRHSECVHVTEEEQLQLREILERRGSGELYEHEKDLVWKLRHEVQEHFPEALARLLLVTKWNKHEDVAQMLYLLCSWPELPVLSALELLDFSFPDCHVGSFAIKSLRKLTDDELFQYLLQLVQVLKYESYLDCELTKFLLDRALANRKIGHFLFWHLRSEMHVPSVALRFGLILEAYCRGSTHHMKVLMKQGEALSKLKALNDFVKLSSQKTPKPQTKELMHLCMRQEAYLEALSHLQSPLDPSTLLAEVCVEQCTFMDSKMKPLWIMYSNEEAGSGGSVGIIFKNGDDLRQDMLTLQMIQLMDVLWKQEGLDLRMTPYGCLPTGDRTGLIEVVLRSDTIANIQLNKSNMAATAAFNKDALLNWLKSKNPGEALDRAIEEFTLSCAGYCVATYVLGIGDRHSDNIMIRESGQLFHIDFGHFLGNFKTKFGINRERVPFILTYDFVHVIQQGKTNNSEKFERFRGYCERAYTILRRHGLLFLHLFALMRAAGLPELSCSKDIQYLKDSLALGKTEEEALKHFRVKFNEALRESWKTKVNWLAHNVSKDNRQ
Chain of PIK3CB (Human) (P42338 whole entry, looked up): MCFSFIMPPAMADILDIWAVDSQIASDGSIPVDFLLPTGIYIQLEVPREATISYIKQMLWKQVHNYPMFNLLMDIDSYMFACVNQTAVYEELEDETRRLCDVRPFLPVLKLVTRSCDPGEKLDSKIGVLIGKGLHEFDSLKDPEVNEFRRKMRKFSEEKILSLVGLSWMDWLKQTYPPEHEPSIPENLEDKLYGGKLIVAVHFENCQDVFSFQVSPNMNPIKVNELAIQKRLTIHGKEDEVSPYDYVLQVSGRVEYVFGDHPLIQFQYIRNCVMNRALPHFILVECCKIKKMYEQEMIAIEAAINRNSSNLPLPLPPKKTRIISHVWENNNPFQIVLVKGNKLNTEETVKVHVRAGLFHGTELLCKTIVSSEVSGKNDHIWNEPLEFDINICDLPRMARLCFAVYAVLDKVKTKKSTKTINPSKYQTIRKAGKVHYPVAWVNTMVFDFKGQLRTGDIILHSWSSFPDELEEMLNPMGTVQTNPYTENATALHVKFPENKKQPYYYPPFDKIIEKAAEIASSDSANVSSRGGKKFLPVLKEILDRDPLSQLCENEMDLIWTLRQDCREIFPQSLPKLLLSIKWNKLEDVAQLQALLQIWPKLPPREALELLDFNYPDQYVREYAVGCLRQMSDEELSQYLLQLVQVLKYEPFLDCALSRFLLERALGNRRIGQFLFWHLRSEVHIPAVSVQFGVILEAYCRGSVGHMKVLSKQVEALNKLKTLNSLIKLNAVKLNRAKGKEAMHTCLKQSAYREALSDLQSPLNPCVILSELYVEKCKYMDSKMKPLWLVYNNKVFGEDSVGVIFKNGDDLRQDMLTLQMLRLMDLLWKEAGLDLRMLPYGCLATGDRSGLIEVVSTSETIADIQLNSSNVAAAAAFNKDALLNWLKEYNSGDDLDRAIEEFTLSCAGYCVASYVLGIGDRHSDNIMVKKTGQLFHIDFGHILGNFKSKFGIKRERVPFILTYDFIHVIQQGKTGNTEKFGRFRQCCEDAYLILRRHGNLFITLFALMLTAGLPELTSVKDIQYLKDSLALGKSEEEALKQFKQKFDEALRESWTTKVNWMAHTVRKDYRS

In the case of `COc1ncc(-c2cccc3nc([C@H](C)Nc4nc(N)nc5cccnc45)n(-c4ccccc4)c(=O)c23)cn1`, the pIC50 was over 7.00 against PIK3CD (Human) [1], under 5.00 on PIK3CB (Human), over 7.00 against PIK3CD (Human) [2] and over 7.00 on PIK3CG (human).
Take `CC(C)n1c([C@H](C)Nc2ncnc3cccnc23)cc2cccc(-c3ccc(=O)n(C)c3)c2c1=O`: the results for the pIC50 against PIK3CD (Human) [1] and against PIK3CD (Human) [2] were 6.00 to 7.00 and over 7.00, respectively.
For the compound `C[C@H](Nc1ncnc2[nH]cnc12)c1cc2cccc(C(F)(F)F)c2c(=O)n1-c1cccc(F)c1`, the pIC50 at PIK3CD (Human) [1], on PIK3CD (Human) [2] and on PIK3CG (human) was over 7.00 each time.
Turning to `CCOC(=O)c1cnc(N[C@@H](C)c2cc3cccc(-c4ccnc(OC)c4)c3c(=O)n2-c2ccccc2)nc1N`, the negative-log IC50 (pIC50) against PIK3CD (Human) [1], against PIK3CB (Human), against PIK3CA (human) [3] and on PIK3CG (human) was under 5.00 in each case.
On to `C[C@@H](c1cc2cccc(Cl)c2c(=O)n1-c1ccccc1)n1c(=O)[nH]c2cnc(N)nc21`, for which the pIC50 against PIK3CD (Human) [1], on PIK3CB (Human), against PIK3CA (human) [3] and at PIK3CG (human) was under 5.00 each time.
Consider `C[C@H](Nc1nc(Cl)nc2cccnc12)c1cc2cccc(-c3cnn(C)c3)c2c(=O)n1-c1cccc(F)c1`, for which the pIC50 is 6.00 to 7.00 against PIK3CD (Human) [1], under 5.00 against PIK3CB (Human), under 5.00 on PIK3CA (human) [3] and 6.00 to 7.00 against PIK3CG (human).
As for `COc1ncc(-c2cccc3cc([C@H](C)Nc4ccnc5ccnn45)n(-c4ccccc4)c(=O)c23)cn1`, the pIC50 was over 7.00 against PIK3CD (Human) [1], under 5.00 against PIK3CB (Human), under 5.00 on PIK3CA (human) [3] and 6.00 to 7.00 against PIK3CG (human).
Regarding `C[C@H](Nc1nc(N)nc2cccnc12)c1cc2cccc(-c3cnc4[nH]ccc4c3)c2c(=O)n1-c1ccccc1`, the pIC50 was over 7.00 against PIK3CD (Human) [1], 6.00 to 7.00 at PIK3CB (Human), 6.00 to 7.00 against PIK3CA (human) [3] and over 7.00 against PIK3CG (human).
Turning to `C[C@H](Nc1ccnc2ccnn12)c1cc2scc(-c3cnn(C)c3)c2c(=O)n1-c1ccccc1`, the negative-log IC50 (pIC50) was 6.00 to 7.00 on PIK3CD (Human) [1], under 5.00 at PIK3CB (Human), under 5.00 against PIK3CA (human) [3] and 6.00 to 7.00 against PIK3CG (human).
Regarding `COc1ncc(-c2cccc3cc([C@H](C)Nc4cc(N)nc5ccnn45)n(-c4ccccc4)c(=O)c23)cn1`, the pIC50 at PIK3CD (Human) [1] was over 7.00; at PIK3CB (Human), under 5.00; against PIK3CA (human) [3], under 5.00; against PIK3CG (human), 6.00 to 7.00.
Take `C[C@H](Nc1ncnc2cccnc12)c1cc2cccc(C(=O)O)c2c(=O)n1-c1ccccc1`: the negative logarithm of the IC50 (pIC50) at PIK3CD (Human) [1] is under 5.00; against PIK3CB (Human), under 5.00; against PIK3CA (human) [3], under 5.00; against PIK3CG (human), 6.00 to 7.00.
`C[C@H](Nc1ncnc2cccnc12)c1cc2cccc(Cl)c2c(=O)n1-c1cccc(F)c1`: the negative-log IC50 (pIC50) is over 7.00 against PIK3CD (Human) [1], 6.00 to 7.00 on PIK3CB (Human), 6.00 to 7.00 at PIK3CA (human) [3] and over 7.00 against PIK3CG (human).
For `C[C@H](Nc1ncnc2cccnc12)c1cc2cccc(-c3cnn(C)c3)c2c(=O)n1-c1ccccc1`, the negative-log IC50 (pIC50) against PIK3CD (Human) [1] is over 7.00; on PIK3CB (Human), under 5.00; on PIK3CD (Human) [2], over 7.00; on PIK3CG (human), over 7.00.
Regarding `C[C@H](Nc1nc(O)nc2[nH]cnc12)c1cc2cccc(C(F)(F)F)c2c(=O)n1-c1cccc(F)c1`, the pIC50 at PIK3CD (Human) [1], on PIK3CB (Human), at PIK3CA (human) [3] and on PIK3CG (human) was under 5.00 in each case.
With `Cc1ncc(-c2cccc3nc([C@H](C)Nc4nc(N)nc5cccnc45)n(-c4ccccc4)c(=O)c23)cn1`, the pIC50 at PIK3CD (Human) [1] was over 7.00; at PIK3CB (Human) it was under 5.00; against PIK3CD (Human) [2], over 7.00; on PIK3CG (human) it was over 7.00.
For the compound `CNc1nc(N[C@@H](C)c2cc3cccc(NC)c3c(=O)n2-c2ccccc2)c2ncccc2n1`, the pIC50 on PIK3CD (Human) [1] was 6.00 to 7.00; on PIK3CB (Human), under 5.00; on PIK3CA (human) [3], under 5.00; at PIK3CG (human) it was over 7.00.
Regarding `COc1ncc(-c2cccc3cc([C@H](C)Nc4nc(OC)nc5cccnc45)n(-c4ccccc4)c(=O)c23)cn1`, the pIC50 on PIK3CD (Human) [1], against PIK3CB (Human), at PIK3CA (human) [3] and on PIK3CG (human) was under 5.00 each time.
On to `C[C@H](Nc1nc(N)nc2[nH]cnc12)c1cc2cccc(C(F)(F)F)c2c(=O)n1-c1ccccc1`, for which the pIC50 against PIK3CD (Human) [1] is over 7.00; at PIK3CB (Human) it was over 7.00; at PIK3CA (human) [3] it was 6.00 to 7.00; on PIK3CG (human), over 7.00.
Take `C[C@H](Nc1cc(Cl)ncc1C(N)=O)c1cc2cccc(Cl)c2c(=O)n1-c1ccccc1`: the pIC50 is 6.00 to 7.00 against PIK3CD (Human) [1], under 5.00 against PIK3CB (Human), under 5.00 at PIK3CA (human) [3] and 6.00 to 7.00 at PIK3CG (human).
Take `CNc1nc(N[C@@H](C)c2cc3cccc(-c4cnc(OC)nc4)c3c(=O)n2-c2ccccc2)c2ncccc2n1`: the pIC50 against PIK3CD (Human) [1] was over 7.00; against PIK3CB (Human), under 5.00; on PIK3CA (human) [3], under 5.00; on PIK3CG (human), 6.00 to 7.00.
Turning to `CNc1nc(N[C@@H](C)c2cc3cccc(-c4cnc(C)nc4)c3c(=O)n2-c2ccccc2)c2ncccc2n1`, the pIC50 against PIK3CD (Human) [1] was 6.00 to 7.00; against PIK3CB (Human), under 5.00; against PIK3CA (human) [3] it was under 5.00; against PIK3CG (human), 6.00 to 7.00.
On to `C[C@H](Nc1nc(N)nc2cccnc12)c1nc2cccc(-c3cnn(C)c3)c2c(=O)n1-c1ccccc1`, for which the pIC50 at PIK3CD (Human) [1] was over 7.00; against PIK3CB (Human) it was under 5.00; against PIK3CA (human) [4], 6.00 to 7.00; against PIK3CD (Human) [2], over 7.00; against PIK3CG (human), over 7.00.
Take `C[C@H](Nc1ncnc2cc(F)ccc12)c1cc2cccc(Cl)c2c(=O)n1-c1ccccc1`: the pIC50 against PIK3CD (Human) [1], against PIK3CB (Human), against PIK3CA (human) [3] and against PIK3CG (human) was under 5.00 in each case.
With `C[C@H](Nc1ncnc2cccnc12)c1cc2cccc(Cl)c2c(=O)n1C1CC1`, the pIC50 is over 7.00 at PIK3CD (Human) [1], over 7.00 against PIK3CB (Human), 6.00 to 7.00 at PIK3CA (human) [3] and over 7.00 against PIK3CG (human).
Regarding `C[C@H](Nc1cc(N)ncc1C(N)=O)c1cc2cccc(Cl)c2c(=O)n1-c1ccccc1`, the pIC50 was over 7.00 on PIK3CD (Human) [1], over 7.00 at PIK3CB (Human), 6.00 to 7.00 against PIK3CA (human) [3] and over 7.00 against PIK3CG (human).
